Columns and labels:
[1] = Rat PK PBL cassette (i.v.); type: in vivo, Sprague-Dawley rat; conditions: Sprague-Dawley, iv, male SD rat, 0.2 mg/kg i.v. cassette; for Kp at 0.25 h: brain and plasma, 0.25 time point (15 min post dosing), read-out: Kp (total brain to plasma ratio); for AUC / clearance / half-life / MRT / Vd: plasma, n = 1; for AUC: read-out: AUC; for clearance: read-out: CLp; for half-life: read-out: Elim. t1/2 (converted); for MRT: read-out: MRT; for Vd: read-out: Vss
Excerpt: While ML133 has found use as a Kir2.1 tool molecule across many disease models, the in vivo PK of this and related compounds within the dibenzylamine chemotype have not previously been characterized. As a highly efficient method for profiling the PK of a compound set, we therefore examined ML133 (alongside 9 additional next-generation Kir2.1 inhibitors) in our rat PK PBL cassette dosing platform (Table ). − From this experimental setup, administration of a 4-compound bolus dose, plus a standard control, can be used to determine a variety of PK parameters in a high-throughput fashion. Specifically, Sprague–Dawley (SD) rats were given 0.2 mg/kg of each Kir2.1 inhibitor (i.v. dosing, 4 compounds +1 control, total dose 1 mg/kg) with PK measured across set time points up to 24 h. Additionally, a separate cohort of animals was utilized to assess total plasma-brain levels (PBL, ratio reported as Kp) of compound at a 0.25 time point. In this fashion, standard plasma-based PK parameters (elimination t 1/2, […] (MRT), plasma clearance (CLp), and volume of distribution (Vss)) were measured alongside a parallel assessment of total brain exposure.
PK PBL Cassette Experimental Conditions
4 compounds plus one control were formulated as a solution in ethanol, PEG400, and DMSO (1:3:6 v/v, respectively) at a concentration of 1 mg/mL and administered as a single IV dose (1 mL/kg, 0.2 mg/kg per compound, total 1 mg/kg) to male, Sprague Dawley rats (n = 1) via injection into a surgically -implanted jugular vein catheter. Blood samples were collected serially from a surgically implanted carotid artery catheter in each animal over multiple post -administration time points (0.033, 0.117, 0.25, 0.5, 1, 2, 4, 7, and 24 hours) into chilled, K 2EDTA anticoagulant - fortified tubes and immediately placed on wet ice. The blood samples were then centrifuged (1700 rcf, 5 minutes, 4 °C) to ob tain plasma samples, which were stored at -80 °C until analysis […]
For determination of the brain over plasma ratio (K p), the same cassette of compounds plus control were formulated in ethanol, PEG400, and DMSO (1:3:6 v/v, respectively) and administered as a single IV dose (1 mL/kg, 0.2 mg/kg per compound, total 1 mg/kg) to male, Sprague Dawley rats ( n = 1) via injection into a surgically-implanted jugular vein catheter. At 15 min post dosing, blood sample was collected terminally into chilled, K 2EDTA anticoagulant-fortified tube and immediately placed on wet ice. The bloo d sample was then centrifuged (1700 rcf, 5 minutes, 4 °C) to obtain plasma sample. At the same post-administration time point, whole brain sample was obtained by rapid dissection, rinsed with PBS, and immediately frozen in individual tissue collection box (dry ice). All brain and plasma samples were stored at -80 °C until […]
Samples preparation for bioanalysis
Plasma samples from the in-life phase of the study were thawed at ambient temperature (benchtop), and then aliquots (20 µL per sample) were transferred to a 96-shallow-well (V-bottom) plate. Matrix-matched quality control (QC) samples and a standard curve of each analyte (1 mg/mL DMSO stock solution) were prepared in blank rat plasma (K2EDTA-treated) via serial dilution and transferred (20 µL each) to the plate along with multiple blank plasma samples. MeCN (120 µL) containing IS (10 nM carbamazepine) was added to each well of the plate to precipitate protein. The plate was then centrifuged (4000 rcf, 5 minutes, ambient temperature), and resulting supernatants (60 µL each) were transferred to a new 96-shallow-well (V-bottom) plate containing an equal volume (60 µL per well) of water (Milli-Q purified). The plate was then sealed in preparation for LC-MS/MS analysis.
Preparation of brain samples was identical to that of plasma samples except for the following modifications. While thawing, brains were weighed (inside their collection boxes using a universal empty collection box tare weight) and then subjected to mechanical homogenization […]

human Kir2.1 [2] = target: T1, human Kir2.1 (Homo sapiens, UniProt P63252); assay: Kir2.1 thallium flux assay; type: cell-based; conditions: for IC50: T-REx-HEK-293 cells expressing human Kir2.1, 4PL fit, top concentration 30 μM, read-out: Thallium Flux Potency IC50; for Emax: efficacy from 4PL fit, relative to ML133, read-out: Thallium Flux Efficacy (% Inhibition)
T1 construct: expressed in transfected cells
T1 sequence (P63252 1-427): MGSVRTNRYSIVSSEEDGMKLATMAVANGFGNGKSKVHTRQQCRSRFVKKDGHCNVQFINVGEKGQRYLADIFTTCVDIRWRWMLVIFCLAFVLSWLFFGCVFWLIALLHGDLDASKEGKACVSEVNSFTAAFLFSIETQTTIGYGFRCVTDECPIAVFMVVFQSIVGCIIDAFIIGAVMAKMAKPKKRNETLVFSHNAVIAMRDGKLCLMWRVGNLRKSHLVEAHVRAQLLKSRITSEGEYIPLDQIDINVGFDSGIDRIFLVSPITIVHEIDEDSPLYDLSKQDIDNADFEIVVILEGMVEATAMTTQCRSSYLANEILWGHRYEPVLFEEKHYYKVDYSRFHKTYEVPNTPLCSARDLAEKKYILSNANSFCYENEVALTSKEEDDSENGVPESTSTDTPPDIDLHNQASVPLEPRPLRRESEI
Protocol: Thallium Flux Assay Experimental Conditions
The Tl+ flux assays were conducted as previously described with modifications optimized for Kir2.1 cell line as described below.1
Briefly, stable T-REx-HEK-293 cells expressing human K ir2.1 were cultured in DMEM growth medium (Catalog #11965-092, Gibco, Billings, MT) containing 10% heat-inactivated FBS (Catalog #16140, Gibco), 100 U/mL PenStrep, 5 μg/mL Blasticidin S, and 250 μg/mL Hygromycin.
The day prior to the experiment, cells at ~90% confluency were resuspended in plating media, which consisted of the same components as the growth media, except that heat-inactivated FBS was replaced with dialyzed FBS (Catalog #26400, Gibco). Tetracycline was added to the plating media to achieve a final concentration of 1 μg/ml to induce hKir2.1 expression. Cells were then counted and plated at 15,000 cells/well in black-walled, amine- or PDL- coated, 384-well plates at 20 μl/well (Corning, Corning, NY). On the day of experiment, the media was removed from the cell plate and replaced with 20 μl/well of Tl+-sensitive dye loading solution containing 2.5 μg/ml Thallos-AM (Catalog #11000-050, ION Biosciences, San Marcos, TX) in assay buffer using a Multidrop Combi dispenser (Thermo Fisher Scientific, Walkham, MA). Cell plates loaded with dye solution were incubated for 1 hour at room temperature. Following incubation, the cell plate was washed with HBSS assay buffer containing 20 mM HEPES using a BioTek ELx 405 TS plate washer (Agilent, Santa Clara, CA), leaving 20 μl of assay buffer in each well. The cell plate was then transferred to a Panoptic kinetic imaging plate reader (WaveFront Biosciences, Franklin, TN) for imaging at 1 Hz, 482/35 nm excitation and 536/40 nm emission for 10 seconds. Following this, 20 μl/well of HBSS assay buffer containing test compounds at 2-fold over their final concentrations were added and imaging continued for another eight minutes, after which 10 μl/well of chloride-free Tl+ stimulus solution was added (Catalog #11000-050, ION Biosciences). The final Tl2SO4 concentration in cell plate post-Tl+ stimulus solution addition was 0.25 mM. Images were collected for an additional two minutes. A ten-point concentration series from 30 μM to 2 nM with a 1:3 dilution factor was generated using an Echo liquid handler 650 (Labcyte, San Jose, CA). Final DMSO concentration, 0.3% (v/v) in the assay was constant across all compound concentrations.
The initial slopes of the Tl+-induced fluorescence changes were fit to a four-parameter logistic equation using our in-house software Waveguide to determine potency and efficacy values. […]
Bauer, J. A.; Days, E. L.; Lindsley, C. […]

human Kir2.1 [3] = target: T1, human Kir2.1; assay: Kir2.1 manual patch clamp (MPC) assay; type: cell-based; conditions: pH 7.4, -120 mV, normalized to 2 mM Ba2+ block; top concentration 10 μM (ML133 30 μM, 5t 3 μM)
Protocol: Manual Patch Claim Assay Experimental Conditions
Whole-cell patch-clamp electrophysiology was used to record K ir2.1 currents from a stably transfected monoclonal T-Rex-HEK-293 cell line with a tetracycline-inducible promoter expressing human Kir2.1, as described previously1 cultured in a 5% CO2 incubator at 37°C. Kir2.1 expression was induced by overnight treatment with 1 µg/mL tetracycline. Cells were dissociated using 0.25% Trypsin-EDTA and seeded onto 12 mm circular coverslips (Electron Microscopy Sciences, PA, USA) for same-day whole-cell patch-clamp recordings. Kir2.1 currents were recorded at room temperature using an AxoPatch 200B amplifier with Clampex 10.7 software (Molecular Devices, USA). The voltage-clamp protocol consisted of a 1-s step to -120 mV from a -80 mV holding potential, followed by a 2-s ramp to +40 mV, repeated every 10 s. Data were sampled at 5 kHz and filtered at 1 kHz. Patch pipettes, pulled from 1.5 mm OD thin-walled capillaries (Warner Instruments, MA, USA) using a Sutter P-1000 puller (Sutter Instrument, CA, USA), had resistances of 2–3 MΩ when filled with intracellular solution containing (mM): 135 KCl, 10 HEPES, 1 EGTA, 2 MgCl2, 2 Na2ATP (pH 7.35, adjusted with KOH). The extracellular solution contained (mM): 135 NaCl, 5 KCl, 2 CaCl2, 1 MgCl2, 5 Glucose, 10 HEPES, 10 Sucrose (pH 7.35, adjusted with NaOH). After establishing stable baseline Kir2.1 currents, cells were perfused with compounds at concentrations of 0.03–30 µM until response saturation (within minutes).
Recordings concluded with a 2 mM Ba2+ solution to isolate Ba2+-sensitive currents, with compound responses expressed as fractions of this current. Current amplitudes at the -120 mV step were analyzed using Clampfit 11.2 (Molecular Devices). IC50 values were calculated by fitting the Hill equation to concentration-response curves (CRCs) using variable -slope nonlinear regression in GraphPad Prism 10.4 (GraphPad Software).
MPC experiments for Kir2.2 and Kir2.3 were conducted in an analogous fashion.1

COc1ccc(CNCc2cncc3ccccc23)cc1 [Compound 5b]
Kp at 0.25 h [1]: 1.05
AUC [1]: 183 ng·h/mL
clearance [1]: 18.2 mL/min/kg
half-life [1]: 17.4 min
MRT [1]: 21.6 min
Vd [1]: 0.39 L/kg
Fold less potent than ML133 in the thallium flux assay (human Kir2.1 [2]): approximately 2 fold
IC50 (human Kir2.1 [2]): 24.8 µM
Emax (human Kir2.1 [2]): 140%

COc1ccc(CNCc2ccc(-c3cccc(C)c3)cc2)cc1 [Compound 5r]
Kp at 0.25 h [1]: 2.29
AUC [1]: 162 ng·h/mL
clearance [1]: 20.6 mL/min/kg
half-life [1]: 104 min
MRT [1]: 78.6 min
Vd [1]: 1.62 L/kg
IC50 (human Kir2.1 [2]): 8.5 µM
Emax (human Kir2.1 [2]): 99%

COc1ccc(CNCc2ccc(-c3cccc(OC)c3)cc2)cc1 [Compound 9]
IC50 (human Kir2.1 [3]): 0.21 µM
IC50 (human Kir2.1 [2]): 5.4 µM

COc1ccc(CNCc2ccc(-c3cccc(OC)c3)cc2)cc1 [Compound 11]
IC50 (human Kir2.1 [3]): 0.33 µM
IC50 (human Kir2.1 [2]): 4.3 µM

COc1ccc(CNCc2ccc(-c3cccc(OC)c3)cc2)cc1 [Compound 13]
IC50 (human Kir2.1 [3]): 0.21 µM
IC50 (human Kir2.1 [2]): 4.7 µM

Reference: PMC12434521, “Characterization of Next-Generation Inhibitors for the Inward-Rectifier Potassium Channel Kir2.1: Discovery of VU6080824” (ACS Medicinal Chemistry Letters, 2025)
